One test has as its target T1, A2b receptor (Homo sapiens, UniProt P29275).
T1 construct: endogenous in cells; host or cells: T84 cells
T1 sequence (P29275 1-332): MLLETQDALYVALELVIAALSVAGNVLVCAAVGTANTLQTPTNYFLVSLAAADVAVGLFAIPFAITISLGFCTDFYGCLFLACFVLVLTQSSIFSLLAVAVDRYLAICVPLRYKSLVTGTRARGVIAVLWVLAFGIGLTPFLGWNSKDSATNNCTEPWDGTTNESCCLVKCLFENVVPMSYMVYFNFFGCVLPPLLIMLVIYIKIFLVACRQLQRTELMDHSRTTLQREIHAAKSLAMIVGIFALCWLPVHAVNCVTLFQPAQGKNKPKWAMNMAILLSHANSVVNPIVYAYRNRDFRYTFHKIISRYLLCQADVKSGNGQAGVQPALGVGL
The test is described as follows: cAMP measurement in adenosine-stimulated T84 cells. The note with it: T84 monolayers, adenosine 100 μM, ATL-801 100 μM; unstimulated 1.7±0.05, adenosine alone 4.7±0.66. The test is classed as cell-based. Here is the method:
T84 cells were stimulated with adenosine (100 μM) or forskolin (10 μM) for 7 min, with or without ATL-801 (100 μM). Total cell lysates were processed in the presence of IBMX (phosphodiesterase inhibitor). cAMP levels were measured in whole cell lysates using a competitive cAMP immunoassay kit (Applied Biosystems, Bedford, Mass.) according to the manufacturer's instructions. Luminescence was read with a Luminoscan Ascent plate reader (Thermo Labsystems, Needham Heights, Mass.).

The next test relates to IL-6 and MIP-2 mRNA. The test is described as follows: Real time PCR of proinflammatory cytokine mRNA in colonic tissue, DSS model. Type of test: in vivo, mouse. On the procedure: In the DSS-model proinflammatory cytokines were measured by real time PCR. Total RNA was extracted from DSS treated, DSS+ATL-801 and control colonic tissue using the TRizol reagent. After quantification, a reverse transcription (RT) reaction was performed with 2 μg of each sample and oligo-dT primer, using the SuperScript First strand synthesis system for RT-PCR (Invitrogen, CA). The real-time iCycler sequence detection system (Bio-Rad) was used for the real-time RT-PCR. […] The 36B4 expression levels were used as reference, and fold-induction was calculated using a standard curve. For graphical representation of quantitative PCR data, raw cycle threshold values (Ct values) obtained for treated mice were deducted from the Ct value obtained for internal 36B4 transcript levels, using the Ct method as follows: ΔΔCT=(Ct Target−Ct 36B4)treatment−(Ct Target−Ct 36B4) no treatment, and the final data were derived from 2^−ΔΔCT. […] In IL-10−/− model proinflammatory cytokines were measured by ELISA in organ cultures. […] Supernatants were harvested after 24 hours, centrifuged and stored at −80° C. before IL-6 and keratinocyte derived chemokine, KC levels were measured by ELISA. […] IL-8 was measured in the supernatants by ELISA.
Background: In qPCR the cycle at which signal appears reflects the starting amount.

The values that follow come from patent publication US8193200B2, “Antagonists of A2B adenosine receptors for treatment of inflammatory bowel disease” (University of Virginia Patent Foundation, priority 2007, dated 2012).

As for `CCCn1c(=O)n(C2CC2)c(=O)c2[nH]c(-c3ccc(N(CC)C(=O)c4cccnc4)nc3)nc21` [ATL-801], the “adenosine mediated cAMP levels, adenosine+ATL-801” value at A2b receptor was determined as 0.2±0.06 pmoles/10^6 cells. Further, the “IL-6 mRNA in colonic mucosal tissue” value with IL-6 and MIP-2 mRNA (DSS + antagonist, normalized to 36B4, DSS 7.2±1.7) was 1.8±0.7 fold increase compared to untreated. Also, in the test on IL-6 and MIP-2 mRNA (DSS+ATL-801, fold increase over control (FIG. 5B), DSS 28.1±3.8), the “MIP-2 mRNA levels” value came out at 13.62±3.0.
